Assay results published in patent US7205298B2, “Substituted triazine kinase inhibitors” (Janssen Pharmaceutica N.V., priority 2002, dated 2007).

Columns and labels:
EGF-R1 = biological target: T1, EGF-R1 (Homo sapiens, UniProt P00533); assay: Kinase selectivity assay EGF-R1; format: biochemical
T1 construct: purified from human A431 cell membranes; purchased Sigma E3641; host or cells: human A431 cell membranes (endogenous protein)
Experimental: (§1) Assays to test compound inhibition of other kinases were preformed using methods that measure the amount of phosphorylation of a biotinylated peptide substrate. Biotinylated peptide substrates were selected from the literature as appropriate for the enzyme being evaluated. […] Assay conditions vary slightly for each protein kinase, for example, insulin receptor kinase requires 10 mM MnCl2 for activity and Calmodulin-dependent protein kinase requires calmodulin and 2 mM CaCl2. The reaction mixture was dispensed into the wells of a streptavidin coated Flashplate and 1 μL test compound in 100% DMSO was added to a 100 μL reaction volume resulting in a final concentration of 1% DMSO in the reaction. Enzyme was diluted in 50 mM Tris-HCl pH=8.0, 0.1% BSA and added to each well. The reaction was incubated for one hour at 30° C. in the presence of a test compound. After one hour the reaction mix was aspirated from the plate and the plate was washed with PBS containing 100 mM EDTA. The plate was read on a scintillation counter to determine ^33P-γ-ATP incorporated into the immobilized peptide substrate. Test compounds were assayed in duplicate at 8 concentrations (100 μM, 10 μM, 1 μM, 100 nM, 10 nM, 1 nM, 100 pM, 10 pM). A maximum and minimum signal for the assay was determined on each plate. […] Known inhibitor compounds appropriate for the kinase being assayed were also included on each plate. […]

[1] = biological target: T2, Casein Kinase 1 (CK1 delta isoform) (Rattus norvegicus, UniProt Q06486); assay: Kinase selectivity assay Casein Kinase 1; format: biochemical
T2 construct: a truncation at amino acid 318 of the C-terminal portion of the rat CK1 delta isoform; purchased New England Biolabs 6030; host or cells: E. coli
T2 sequence (Q06486 1-317): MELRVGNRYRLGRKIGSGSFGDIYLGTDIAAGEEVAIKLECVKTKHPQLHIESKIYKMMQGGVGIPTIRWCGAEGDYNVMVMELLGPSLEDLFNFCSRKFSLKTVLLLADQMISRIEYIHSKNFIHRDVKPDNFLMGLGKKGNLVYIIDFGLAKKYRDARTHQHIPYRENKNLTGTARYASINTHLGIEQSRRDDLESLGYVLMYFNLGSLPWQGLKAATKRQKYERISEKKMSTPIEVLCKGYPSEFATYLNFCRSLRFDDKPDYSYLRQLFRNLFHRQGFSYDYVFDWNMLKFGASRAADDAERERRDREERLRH
Experimental: as §1

[2] = biological target: T3, PDGF-R (beta subunit kinase domain) (Homo sapiens, UniProt P09619); assay: Kinase selectivity assay PDGF-R; format: biochemical
T3 construct: nucleotides 1874–3507 of the human PDGF-R beta subunit kinase domain; polyhistidine (N)
Experimental: as §1

MDA-MB-231 = assay: Inhibition of cell proliferation, 14C-thymidine incorporation, MDA-MB-231; format: cell-based; details: Homo sapiens
Experimental: The ability of a test compound to inhibit the proliferation of cell growth was determined by measuring incorporation of ^14C-labelled thymidine into newly synthesized DNA within the cells. This method was used on cell lines derived from carcinomas originating from several tissues such as HeLa cervical adenocarcinoma (American Type Culture Collection (ATCC), Virginia, Cat. #CCL-2), HCT-116 colon carcinoma (CCL-247), MDA-MB-231 (Xenogen Corp.), PC-3 prostate adenocarcinoma (ATCC CRL-1435) and A375 malignant melanoma (ATCC CRL-1619).
Using this method, the effect of a compound on cell growth of cells with many different phenotypes can be determined. Cells were trypsinized and counted and 3000–8000 cells were added to each well of a 96-well CytoStar tissue culture treated scintillating microplate (Amersham #RPNQ0160) in complete medium in a volume of 100 μl. Cells were incubated for 24 hours in complete medium at 37° C. in an atmosphere containing 5% CO2. 1 μL of test compound in 100% DMSO was then added to the wells of the plate. DMSO only was added to control wells. Cells were incubated for 24 more hours in complete medium at 37° C. in an atmosphere containing 5% CO2. […] The degree of methyl ^14C-thymidine incorporation was quantified on a Packard Top Count.

T3 sequence (P09619 554-1106 limits assumed): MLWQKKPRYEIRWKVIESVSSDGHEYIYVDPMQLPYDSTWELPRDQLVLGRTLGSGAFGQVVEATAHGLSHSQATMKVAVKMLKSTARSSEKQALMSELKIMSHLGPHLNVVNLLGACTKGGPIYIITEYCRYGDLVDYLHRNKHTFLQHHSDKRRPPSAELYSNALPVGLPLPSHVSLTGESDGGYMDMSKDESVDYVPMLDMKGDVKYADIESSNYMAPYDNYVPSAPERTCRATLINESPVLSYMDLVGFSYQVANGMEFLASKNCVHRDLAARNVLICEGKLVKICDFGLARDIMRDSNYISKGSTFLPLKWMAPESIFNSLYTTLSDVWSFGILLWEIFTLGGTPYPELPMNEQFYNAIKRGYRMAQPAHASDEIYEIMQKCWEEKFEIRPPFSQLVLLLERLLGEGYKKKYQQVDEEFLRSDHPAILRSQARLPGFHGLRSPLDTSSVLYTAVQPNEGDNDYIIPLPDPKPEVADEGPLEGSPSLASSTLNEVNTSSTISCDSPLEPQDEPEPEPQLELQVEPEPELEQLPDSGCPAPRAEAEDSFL
T1 sequence (P00533 25-1210): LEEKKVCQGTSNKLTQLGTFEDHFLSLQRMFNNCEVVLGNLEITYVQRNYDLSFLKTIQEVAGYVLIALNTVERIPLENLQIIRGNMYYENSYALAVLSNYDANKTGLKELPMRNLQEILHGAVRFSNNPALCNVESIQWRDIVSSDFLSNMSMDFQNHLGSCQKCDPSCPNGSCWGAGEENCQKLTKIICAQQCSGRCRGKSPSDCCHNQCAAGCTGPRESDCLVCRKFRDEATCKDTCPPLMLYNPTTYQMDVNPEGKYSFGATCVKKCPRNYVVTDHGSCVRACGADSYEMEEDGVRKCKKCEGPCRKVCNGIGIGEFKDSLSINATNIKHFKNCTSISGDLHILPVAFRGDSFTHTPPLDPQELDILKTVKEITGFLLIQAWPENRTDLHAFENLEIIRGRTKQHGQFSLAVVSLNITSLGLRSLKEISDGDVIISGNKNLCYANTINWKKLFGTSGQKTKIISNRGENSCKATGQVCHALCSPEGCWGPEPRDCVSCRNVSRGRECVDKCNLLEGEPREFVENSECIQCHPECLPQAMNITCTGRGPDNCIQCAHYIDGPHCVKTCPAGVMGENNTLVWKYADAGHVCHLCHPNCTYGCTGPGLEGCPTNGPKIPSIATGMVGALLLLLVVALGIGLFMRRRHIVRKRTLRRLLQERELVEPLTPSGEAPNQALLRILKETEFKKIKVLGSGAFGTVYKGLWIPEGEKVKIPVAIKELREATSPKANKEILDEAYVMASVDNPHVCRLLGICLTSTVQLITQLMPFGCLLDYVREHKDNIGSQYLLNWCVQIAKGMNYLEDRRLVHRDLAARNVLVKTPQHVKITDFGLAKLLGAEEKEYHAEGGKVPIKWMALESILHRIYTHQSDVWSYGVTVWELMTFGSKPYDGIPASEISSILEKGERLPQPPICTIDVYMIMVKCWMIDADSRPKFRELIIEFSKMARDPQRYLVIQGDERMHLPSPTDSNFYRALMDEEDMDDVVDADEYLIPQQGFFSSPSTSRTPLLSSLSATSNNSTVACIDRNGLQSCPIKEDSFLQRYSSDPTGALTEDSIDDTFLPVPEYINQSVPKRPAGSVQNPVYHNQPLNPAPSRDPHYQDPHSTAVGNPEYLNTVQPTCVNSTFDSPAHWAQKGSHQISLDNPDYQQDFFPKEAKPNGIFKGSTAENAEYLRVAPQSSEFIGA

IC50 (EGF-R1): > 100000 nM
IC50 [1]: 115 nM
IC50 [2]: 1180 nM
IC50 (MDA-MB-231): 330 nM
Structure (SMILES): OCCCNc1cncc(-c2ncnc(Nc3cccc(Cl)c3)n2)c1 [Compound 1, 3-((5-(4-((3-chlorophenyl)amino)-1,3,5-triazin-2-yl)-3-pyridinyl)amino)-1-propanol]
